Three compounds from publication PMC6069808, “Biochemical and structural features of diverse bacterial glucuronoyl esterases facilitating recalcitrant biomass conversion” (Biotechnology for Biofuels, 2018) can be followed below.

Holding throughout (assay): uronate dehydrogenase-coupled assay (K-URONIC), NADH formation
One assay concerns T1, OtCE15C.
T1 construct: recombinant in E. coli BL21(DE3), N-terminal His6 tag and TEV site (modified pET-28a)
The format is biochemical, Opitutus terrae. Particulars: pH 7.5, 25 °C, 50 mM sodium phosphate, ≤10% DMSO.

Another assay deals with T2, OtCE15D.
T2 construct: recombinant in E. coli Rosetta2(DE3), N-terminal His6 tag and TEV site (modified pET-28a)
The format is biochemical, Opitutus terrae. As to conditions: pH 7.5, 25 °C, 50 mM sodium phosphate, ≤10% DMSO.

A further assay deals with T3, SuCE15A.
T3 construct: recombinant in E. coli BL21(DE3), N-terminal His6 tag and TEV site (modified pET-28a)
In kind it is biochemical, Candidatus Solibacter usitatus. As to conditions: pH 7.5, 25 °C, 50 mM sodium phosphate, ≤10% DMSO.

Another assay has as its target T4, SlCE15B (Spirosoma linguale, UniProt D2QTM2).
T4 construct: gene Slin_6195; recombinant in E. coli with tig coexpression (pTf16), N-terminal His6 tag and TEV site (modified pET-28a)
The format is biochemical. Particulars: pH 6.5, 25 °C, 50 mM sodium phosphate, ≤10% DMSO; range covers four enzymes.

In the next assay the test system is T5, OtCE15B.
T5 construct: recombinant in E. coli BL21(DE3), N-terminal His6 tag and TEV site (modified pET-28a); Tyr in place of the conserved Arg next to catalytic Ser
The format is biochemical, Opitutus terrae. As to conditions: pH 7.5, 25 °C, 50 mM sodium phosphate, ≤10% DMSO. The text has this:
uronate dehydrogenase-coupled assay (K-URONIC), NADH formation on OtCE15B

T4 sequence (D2QTM2 entry or part of it): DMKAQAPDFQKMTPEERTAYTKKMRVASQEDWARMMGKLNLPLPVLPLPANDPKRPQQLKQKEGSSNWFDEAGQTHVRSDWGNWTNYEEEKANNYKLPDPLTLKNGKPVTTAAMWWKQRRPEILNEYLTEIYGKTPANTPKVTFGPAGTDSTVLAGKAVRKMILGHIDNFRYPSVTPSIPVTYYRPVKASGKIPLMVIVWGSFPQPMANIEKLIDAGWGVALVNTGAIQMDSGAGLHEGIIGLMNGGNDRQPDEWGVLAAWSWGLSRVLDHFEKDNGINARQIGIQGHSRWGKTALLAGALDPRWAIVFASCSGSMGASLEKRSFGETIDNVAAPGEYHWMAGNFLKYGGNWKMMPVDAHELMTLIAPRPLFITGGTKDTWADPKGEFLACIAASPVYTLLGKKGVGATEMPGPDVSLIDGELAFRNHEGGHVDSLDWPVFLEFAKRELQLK

Take `C=CCOC(=O)[C@H]1OC(O)[C@H](O)[C@@H](O)[C@@H]1O` (some centres unmarked) [AllylGlcA]: the Km (in general, the concentration of substrate that gives half-maximal velocity) in the assay on OtCE15C came to 2210 ± 120 µM; with OtCE15D, 2080 ± 90 µM; in the assay on SuCE15A, 1240 ± 170 µM.

On to `O=C(OCc1ccccc1)[C@H]1OC(O)[C@H](O)[C@@H](O)[C@@H]1O` (some centres unmarked) [BnzGlcA], for which the Michaelis constant (Km) was 400 to 600 µM at SlCE15B; 7940 ± 870 µM with OtCE15B; 400 to 600 µM with OtCE15C (range covers four enzymes); 400 to 600 µM in the assay on OtCE15D (range covers four enzymes); 400 to 600 µM in the assay on SuCE15A (range covers four enzymes).

With `COC(=O)[C@H]1OC(O)[C@H](O)[C@@H](O)[C@@H]1O` (some centres unmarked) [MeGlcA], the values for the Michaelis constant (Km) with OtCE15C, with OtCE15D and in the assay on SuCE15A were 4010 ± 55 µM, 12300 ± 710 µM and 4310 ± 400 µM, respectively.
